According to article PMC12152147, “DDB1 engagement defines the selectivity of S656 analogs for cyclin K degradation over CDK inhibition” (EMBO Reports, 2025):
Several values for one entry are separate records, joined by “and”; a condition that tells them apart may be missing. Identical values can stand only once. Like-named read-outs stand apart in the source and are kept apart here.

How the values were obtained:
[1] = tested on: primary AML specimens; test: Dose-response assays in primary AML specimens (6 days, CellTiterGlo); format: cell-based, human; conditions: Homo sapiens, 144 h, 6 days, read-out: IC50
Protocol: Freshly thawed primary AML specimens were used for chemical screens. Cryopreserved cells were thawed at 37 °C in IMDM containing 20% FBS and DNase I (100 μg/mL). Cells were resuspended in IMDM supplemented with 15% BIT (BSA, insulin, transferrin; StemCell Technologies), 100 ng/mL SCF, 50 ng/mL FLT3L, 20 ng/mL IL3, 20 ng/mL G-CSF, 10^−4 mol/L b-mercaptoethanol, gentamicin (50 μg/mL), ciprofloxacin (10 μg/mL), SR1 (500 nmol/L) and UM729 (500 nmol/L). Cells were plated in 384-well white plates, 5000 cells per well in 50 μL. Compounds were dissolved in DMSO, diluted in media immediately before use and added to seeded cells at the unique concentration of 1 μM. Control wells received DMSO (0.1%) only. Cell viability was evaluated after 6 days in culture using the CellTiterGlo assay according to the manufacturer’s instruction. Percentage of inhibition for dose response curves was calculated as 100 – (100 × (mean luminescence [compound]/mean luminescence [DMSO])). Dose response curves were generated using nonlinear regression in GraphPad Prism version.
Dose-response assays in primary AML specimens were performed as in chemical screen (see above) with the exception that compounds were tested in serial dilution (8 dilutions, 1:4, 10 μM down to 0.5 nM). Dose-response assays in OCI-AML5 cell line were conducted similarly with the following modifications: 300 cells per well were seeded in 50 μL of cell line media and cell viability was evaluated after 4 days in culture.

[2] = tested on: OCI-AML5 cells; test: Dose-response proliferative assay in OCI-AML5 (4 days, CellTiterGlo); format: cell-based, H. sapiens; conditions: Homo sapiens, OCI-AML-5, OCI-AML5 cells; read-out: IC50 in AML5
Method in brief: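 Viability assessed after 4 days of compound exposure at 37 °C, 5% CO2. Compounds tested as 8 dilutions (1:4, 10 μM to 0.5 nM) on 300 OCI-AML5 cells/well grown in αMEM with 10% heat-inactivated FBS and 10 ng/mL GM-CSF.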

[3] = tested on: cyclin KeGFP; test: Cyclin KeGFP reporter system (eGFP/mCherry MFI by flow cytometry);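 for % degradation cyclin K-eGFP: 10 μM compound for 3 h relative to DMSO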; format: cell-based, H. sapiens
Method in brief: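 Degradation read as eGFP-to-mCherry MFI ratio relative to DMSO controls, from flow cytometry of the selected G7 clone of OCI-AML5 cells transduced with the cyclin KeGFP reporter.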

[4] = target: T1, CDK1 (Homo sapiens, UniProt P06493); test: CDK1 in vitro kinase activity, single concentration 1 μM; format: biochemical; conditions: single concentration 1 μM
T1 construct: purchased BPS Bioscience 79597
T1 sequence (P06493 whole entry): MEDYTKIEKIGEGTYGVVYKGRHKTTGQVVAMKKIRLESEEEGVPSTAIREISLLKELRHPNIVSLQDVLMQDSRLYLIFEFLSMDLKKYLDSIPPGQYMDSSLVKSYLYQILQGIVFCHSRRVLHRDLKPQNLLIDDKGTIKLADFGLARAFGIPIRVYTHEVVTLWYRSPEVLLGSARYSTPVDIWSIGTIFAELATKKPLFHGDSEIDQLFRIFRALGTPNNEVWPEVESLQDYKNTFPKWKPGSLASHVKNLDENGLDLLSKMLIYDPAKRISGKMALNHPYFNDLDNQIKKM
T1 sequence (P14635 whole entry partner): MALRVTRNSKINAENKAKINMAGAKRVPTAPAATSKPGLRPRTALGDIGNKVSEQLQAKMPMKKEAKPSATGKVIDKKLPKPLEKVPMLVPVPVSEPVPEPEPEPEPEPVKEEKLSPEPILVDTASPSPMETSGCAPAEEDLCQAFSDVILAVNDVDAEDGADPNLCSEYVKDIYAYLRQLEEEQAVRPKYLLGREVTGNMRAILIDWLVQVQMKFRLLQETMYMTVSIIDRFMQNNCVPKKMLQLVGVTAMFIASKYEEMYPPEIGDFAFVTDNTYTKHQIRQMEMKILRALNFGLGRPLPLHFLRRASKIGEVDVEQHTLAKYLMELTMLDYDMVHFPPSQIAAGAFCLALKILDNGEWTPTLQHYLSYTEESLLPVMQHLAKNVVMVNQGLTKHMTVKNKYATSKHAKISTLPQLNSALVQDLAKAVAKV
Protocol: (§1) Kinase activity was assessed using the kinase assay kits from BPS Bioscience for CDK1, CDK9 and CDK12 with Kinase Glo MAX in duplicates. Compounds were tested at a single concentration of 1 μM for CDK1 and CDK9 activity, and in a dilution ranging from 0.64 nM to 50 μM for CDK12 activity. Chemiluminescence was read using the Neo Synergy BioTek plate reader.

[5] = target: T2, CDK9/CyclinT (Homo sapiens, UniProt P50750); test: CDK9/CyclinT in vitro kinase activity, single concentration 1 μM; format: biochemical; conditions: single concentration 1 μM
T2 construct: purchased BPS Bioscience 79628
T2 sequence (P50750 whole entry): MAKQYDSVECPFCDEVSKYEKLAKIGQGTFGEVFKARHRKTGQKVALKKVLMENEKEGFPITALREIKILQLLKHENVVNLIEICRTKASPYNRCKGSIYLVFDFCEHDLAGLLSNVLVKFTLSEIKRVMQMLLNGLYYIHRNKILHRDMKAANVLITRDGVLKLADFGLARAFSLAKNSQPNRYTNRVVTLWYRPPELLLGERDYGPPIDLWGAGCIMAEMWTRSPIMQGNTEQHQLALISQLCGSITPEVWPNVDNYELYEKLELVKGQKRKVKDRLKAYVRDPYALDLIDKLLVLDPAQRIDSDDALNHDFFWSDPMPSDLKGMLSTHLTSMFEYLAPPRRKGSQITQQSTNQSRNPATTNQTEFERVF
T2 sequence (O60563 whole entry partner): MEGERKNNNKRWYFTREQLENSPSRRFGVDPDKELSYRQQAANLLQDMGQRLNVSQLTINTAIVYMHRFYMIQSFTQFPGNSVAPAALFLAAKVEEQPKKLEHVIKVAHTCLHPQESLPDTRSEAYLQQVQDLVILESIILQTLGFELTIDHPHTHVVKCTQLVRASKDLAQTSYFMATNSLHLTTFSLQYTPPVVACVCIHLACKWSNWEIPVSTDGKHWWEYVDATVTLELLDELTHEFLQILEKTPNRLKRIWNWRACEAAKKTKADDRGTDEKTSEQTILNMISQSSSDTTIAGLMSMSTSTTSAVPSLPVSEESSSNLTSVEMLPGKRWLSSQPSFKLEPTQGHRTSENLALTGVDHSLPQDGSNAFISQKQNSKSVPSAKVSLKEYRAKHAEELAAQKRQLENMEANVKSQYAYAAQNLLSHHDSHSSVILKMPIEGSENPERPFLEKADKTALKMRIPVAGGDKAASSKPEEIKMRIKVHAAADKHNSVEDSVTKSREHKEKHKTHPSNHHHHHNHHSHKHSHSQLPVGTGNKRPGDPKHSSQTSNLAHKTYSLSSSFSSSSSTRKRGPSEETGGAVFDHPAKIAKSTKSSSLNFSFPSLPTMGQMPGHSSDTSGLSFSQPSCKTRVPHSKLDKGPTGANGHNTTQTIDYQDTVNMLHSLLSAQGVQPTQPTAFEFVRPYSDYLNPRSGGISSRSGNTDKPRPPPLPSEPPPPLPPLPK
Protocol: as §1

[6] = tested on: OCI-AML5 cells expressing shRNAs targeting CDK1, 2, 4, 7, 9, cyclin K; test: Dose response in OCI-AML5 expressing shRNAs targeting CDK1, 2, 4, 7, 9, cyclin K or control; format: cell-based, H. sapiens
[7] = tested on: OCI-AML5 cells expressing shRNA targeting CUL4A or CUL4B; test: Dose response in OCI-AML5 expressing shRNAs targeting CUL4A, CUL4B or control; format: cell-based, H. sapiens

Compound: CC(C)(C)c1cnc(CSc2cnc(NC(=O)C3CCNCC3)s2)o1 [SNS-032, N-[5-[[[5-(1,1-dimethylethyl)-2-oxazolyl]methyl]thio]-2-thiazolyl]-4-piperidinecarboxamide]
- IC50 ([1]; primary AML specimen 03H109): 97.3 nM
- IC50 ([1]; primary AML specimen 04H055): 85.7 nM
- IC50 ([1]; primary AML specimen 04H096): 118 nM
- IC50 ([1]; primary AML specimen 04H138): 101 nM
- IC50 ([1]; primary AML specimen 05H113): 153 nM
- IC50 ([1]; primary AML specimen 05H149): 547 nM
- IC50 ([1]; primary AML specimen 05H193): 164 nM
- IC50 ([1]; primary AML specimen 06H088): 217 nM
- IC50 ([1]; primary AML specimen 06H117): 134 nM
- IC50 ([1]; primary AML specimen 06H151): 135 nM
- IC50 ([1]; primary AML specimen 07H003): 94.5 nM
- IC50 ([1]; primary AML specimen 07H131): 512 nM
- IC50 ([1]; primary AML specimen 07H144): 165 nM
- IC50 ([1]; primary AML specimen 07H155): 231 nM
- IC50 ([1]; primary AML specimen 08H018): 618 nM
- IC50 ([1]; primary AML specimen 08H021): 90.9 nM
- IC50 ([1]; primary AML specimen 08H056): 79.4 nM
- IC50 ([1]; primary AML specimen 08H063): 146 nM
- IC50 ([1]; primary AML specimen 08H085): 309 nM
- IC50 ([1]; primary AML specimen 08H108): 70.8 nM
- IC50 ([1]; primary AML specimen 08H118): 291 nM
- IC50 ([1]; primary AML specimen 09H016): 244 nM
- IC50 ([1]; primary AML specimen 09H070): 123 nM
- IC50 ([1]; primary AML specimen 10H014): 563 nM
- IC50 ([1]; primary AML specimen 10H046): 306 nM
- IC50 ([1]; primary AML specimen 10H107): 324 nM
- IC50 ([1]; primary AML specimen 10H127): 71.5 nM
- IC50 ([1]; primary AML specimen 10H161): 97.5 nM
- IC50 ([1]; primary AML specimen 10H174): 211 nM
- IC50 ([1]; primary AML specimen 11H008): 161 nM
- IC50 ([1]; primary AML specimen 11H019): 214 nM
- IC50 ([1]; primary AML specimen 11H170): 523 nM
- IC50 ([1]; primary AML specimen 11H217): 74 nM
- IC50 ([1]; primary AML specimen 11H232): 299 nM
- IC50 ([1]; primary AML specimen 12H033): 280 nM
- IC50 ([1]; primary AML specimen 12H055): 183 nM
- IC50 ([1]; primary AML specimen 12H148): 208 nM
- IC50 ([1]; primary AML specimen 13H053): 563 nM
- IC50 ([1]; primary AML specimen 15H045): 256 nM
- IC50 ([1]; primary AML specimen 17H065): 2500 nM
- IC50 [2]: 47 nM
- MFI of cyclin KeGFP over mCherry ([3]; OCI-AML5 G7 clone, 3 h, 10 μM, normalized to DMSO (=100)): 111.9 and 100.6 and 100.2 and 98.8 and 97.9
- % degradation cyclin K-eGFP ([3]; cyclin K-eGFP reporter): 0%
- inhibition at 1 µM [4]: 77%
- inhibition at 1 µM [5]: 63%
- IC50 ([6]; Homo sapiens, OCI-AML-5, 96 h, OCI-AML5, 4 days, read-out: IC50, sh CDK1): 23.3 nM
- IC50 ([6]; Homo sapiens, OCI-AML-5, 96 h, OCI-AML5, 4 days, read-out: IC50, sh ctrl): 37.4 nM
- IC50 ([6]; Homo sapiens, OCI-AML-5, 96 h, read-out: IC50, sh CDK7): 24.5 nM
- IC50 ([6]; OCI-AML5, 4 days, read-out: IC50, sh CDK1): 46.6 nM and 42 nM
- IC50 ([6]; OCI-AML5, 4 days, read-out: IC50, sh ctrl): 47.4 nM and 50 nM
- Class ([6]; class from shRNA IC50 profile and cyclin K-eGFP degradation): 2
- IC50 ([6]; read-out: IC50, sh CDK7): 41 nM
- potency upon CUL4A or CUL4B downregulation (for SNS-032, THZ531 also DDB1 depletion) ([7]; OCI-AML5, 4 days): remained unaffected
- Ratio shCUL4A/shCTRL ([7]; ratio of IC50 in shCUL4A vs shCTRL OCI-AML5 cells): 1.01
